Drawing on patent US20250154145A1, “OXER1 ANTAGONISTS AND USES THEREOF” (Fairhaven Pharmaceuticals Ins., priority 2021, published 2025), this text covers IC50 for 60 compounds.

As usually defined, the IC50 is the concentration that gives 50% inhibition.

For one assay, the system named is neutrophils. Put plainly: Neutrophil calcium flux assay (5-OXO-ETE-stimulated, Indo-1 fluorescence). The assay is classed as cell-based. The conditions noted are these: 5-OXO-ETE-stimulated calcium flux. Here is the method:
After isolation, neutrophils were resuspended in PBS without calcium and Magnesium (PBS −/−) at a concentration of 5×10^6 cells/ml. 2ul of Indo-1 (1 mM) were added per ml of cells. After incubation at 37° C. for 30 minutes, cells were washed twice in PBS −/− and resuspended at 5×10^6 cells/ml in assay buffer (HBSS 1× with calcium and magnesium and […]). In a 96-well Black optical clear bottom plate 100 μL of neutrophil were dispensed to each well. After incubation at 37° C. for 5 minutes, 50 μL of assay buffer or 3× antagonist were added and incubated for 5 min in a Tecan Spark plate reader (Tecan, Morrisville, NC). Baseline was measured for 30 sec (wavelength setup: excitation: 331 nm and emission:410 nm). When baseline is stable, 50p of 5-OXO-ETE at 200 nM (4×) or HBSS was added to appropriate wells. Fluorescence was measured every 5 seconds for 30 cycles. Results are expressed as Net fluorescence (FLU minus Background and injection peak). All data were analyzed using GraphPad Prism version 9 for Windows (GraphPad, San Diego, CA).
In general terms: A change in cytosolic calcium serves as a functional read-out for many receptors and channels.
As to `CC(CC(=O)O)CC(=O)n1c(CCCCCCc2cccc(Cl)c2)cc2ncc(Cl)cc21` (stereo not drawn) [Compound I-468], the IC50 was over 300 nM. With `CC(CC(=O)O)CC(=O)c1c(CCCCCC(O)c2cccc(C#N)c2)n(C)c2ncc(Cl)cc12` (single isomer, unassigned) [Compound I-307], the IC50 was under 100 nM.

`CC(CC(=O)O)CC(=O)c1c(CCCCCC(O)c2cccc(C(=O)N(C)C)c2)n(C)c2ncc(C#N)cc12` (single isomer, unassigned) [Compound I-317]: the IC50 is under 100 nM.

Still in this assay, the particulars now being: Neutrophil, 5-OXO-ETE-stimulated calcium flux.
`CC(CC(=O)O)CC(=O)c1c(CCOCCNc2ccc(F)cc2)n(C)c2ccc(Cl)cc12` (stereo not drawn) [Compound I-220]: the half-maximal inhibitory concentration (IC50) is over 300 nM. Still for that read-out and setting: the same measure for `CC(CC(=O)O)CC(=O)c1c(CCCCOCc2cccc(Cl)c2)n(CCO)c2ncc(C#N)cc12` (stereo not drawn) [Compound I-377]: over 300 nM. For the compound `C[C@H](CC#N)CC(=O)c1c(CCCCOCc2cccc(Cl)c2)n(C)c2ncc(Cl)cc12` [Compound I-357], the IC50 is over 300 nM. On the same count and under the same terms, the same measure for `[2H]C([2H])([2H])n1c(CCCCOCc2cccc(Cl)c2)c(C(=O)C[C@H](C)CC(=O)O)c2cc(C#N)ccc21` [Compound I-421]: under 100 nM; for `CC(CC(=O)O)CC(=O)c1c(CCCCCC(O)c2ccc(F)cc2)n(C)c2ncc(C#N)cc12` (stereo not drawn) [Compound I-311]: over 300 nM. Still for that read-out and setting: the same measure for `C[C@H](CC(=O)O)CC(=O)c1c(CCCCOCC23CC(C#N)(C2)C3)n(C)c2ccc(Cl)cc12` [Compound I-108]: 100 to 300 nM; for `C[C@H](CC(=O)O)CC(=O)c1c(CCCCCOCc2cccc(Cl)c2)n(C)c2ccc(C#N)cc12` [Compound I-425]: 100 to 300 nM.

`Cn1c(CCCCOCc2ccccc2)c(C(=O)CC(CC(=O)O)C(F)(F)F)c2cc(C#N)cnc21` (stereo not drawn) [Compound I-440]: the IC50 is over 300 nM. Same read-out and setting: next, `CC(CC(=O)O)CC(=O)c1c(CCCOCC(F)(F)c2cccc(Cl)c2)n(C)c2ccc(Cl)cc12` (stereo not drawn) [Compound I-430]: under 100 nM; `CC(CC(=O)O)CC(=O)c1c(CCOCCNc2cccc(F)c2)n(C)c2ncc(C#N)cc12` (stereo not drawn) [Compound I-296]: 100 to 300 nM.

In the case of `C[C@H](CC(=O)O)CC(=O)c1c(CCCCOCc2cccc(C#N)c2)n(C)c2cnccc12` [Compound I-394], the IC50 was under 100 nM. The same measure, in the same setting: next, `C[C@H](CC(=O)O)CC(=O)c1c(CCCCOCC#CC2CC(F)(F)C2)n(C)c2ccc(Cl)cc12` [Compound I-324]: under 100 nM.

As for `C[C@@H](CC(=O)O)CC(=O)c1c(CCCCOCc2ccccc2)n(C)c2ncc(C#N)cc12` [Compound I-106], the IC50 is over 300 nM. The same measure, in the same setting: the same measure for `C[C@H](CC(=O)c1c(CCCCOCc2ccccc2)n(C)c2ncc(C#N)cc12)Cc1nnn[nH]1` (stereo in doubt) [Compound I-360]: over 300 nM; for `C[C@@H](CC(=O)O)CC(=O)c1c(CCCCOCc2cccc(C#N)c2)n(C)c2ncc(Cl)cc12` [Compound I-213]: over 300 nM. On the same count and under the same terms, next, `CC(C)[C@H](CC(=O)O)CC(=O)c1c(CCCCOCc2ccccc2)n(C)c2ncc(C#N)cc12` [Compound I-436]: over 300 nM. Regarding `C[C@@H](CC(=O)O)CC(=O)c1c(CCCCOCc2cc(Cl)cc(Cl)c2)n(C)c2ncc(C#N)cc12` [Compound I-386], the IC50 lay within 100 to 300 nM. As to `C[C@@H](CC(=O)O)CC(=O)c1c(CCCCOCc2cccc(C#N)c2)n(C)c2ccncc12` [Compound I-397], the IC50 is over 300 nM.

On to `CC(CC(=O)O)CC(=O)c1c(CCCCOCc2cccc(OC(F)(F)F)c2)n(C)c2cnc(Cl)cc12` (stereo not drawn) [Compound I-412], for which the IC50 was under 100 nM. The same measure, in the same setting: the same measure for `Cn1c(CCCCOCc2cccc(Cl)c2)c(C(=O)N2CC[C@H](c3nnn[nH]3)C2)c2cc(C(F)(F)F)ccc21` [Compound I-188]: 100 to 300 nM. On the same count and under the same terms, the same measure for `C[C@H](CC(=O)O)CC(=O)c1c(CCCCCCc2cccc(Cl)c2)n(C)c2ccc(OC(F)(F)F)cc12` [Compound I-97]: under 100 nM; for `CC(CC(=O)O)CC(=O)c1c(CCCCCCCC#CC2CC(F)(F)C2)n(C)c2ncc(Cl)cc12` (stereo not drawn) [Compound I-334]: over 300 nM; for `CC(CC(=O)O)CC(=O)c1c(CCCCSCc2ccccc2)n(C)c2ncc(C#N)cc12` (stereo not drawn) [Compound I-426]: over 300 nM. The same measure, in the same setting: the same measure for `C[C@H](CC(=O)O)CC(=O)c1c(CCCCCNc2cccnc2)n(C)c2ccc(Cl)cc12` [Compound I-141]: over 300 nM; for `CC(CC(=O)O)CC(=O)c1c(CCCCOCc2cccc(Cl)c2)n(C)c2ncc(CN(C)C)cc12` (stereo not drawn) [Compound I-375]: over 300 nM. In the case of `CC(CC(=O)O)CC(=O)c1c(C[C@H]2CC[C@H](OCc3cccc(Cl)c3)CC2)n(C)c2ncc(C#N)cc12` (stereo partly drawn) [Compound I-402], the IC50 is 100 to 300 nM.

For the compound `C[C@H](CC(=O)O)CC(=O)c1c(CCCCOCc2cccc(C#N)c2)n(C)c2nc(F)c(Cl)cc12` [Compound I-418], the IC50 was under 100 nM. With `C[C@H](CC(=O)O)CC(=O)c1c(CCCCOCc2cccc(OC(F)(F)F)c2)n(C)c2cnccc12` [Compound I-408], the IC50 is under 100 nM.

Regarding `C[C@H](CC(=O)O)CC(=O)c1c(CCCCOCc2ccccc2)n(C)c2ncc(Cl)cc12` [Compound I-99], the IC50 lay within 100 to 300 nM. The same measure, in the same setting: next, `CC(CC(=O)O)CC(=O)c1c(CCCCCC(O)c2ccc(F)cc2)n(C)c2ncc(Cl)cc12` (stereo not drawn) [Compound I-218]: over 300 nM; `C[C@H](CC(=O)O)CC(=O)c1c(CCCCCOCc2ccccc2)n(C)c2ncc(C#N)cc12` [Compound I-422]: 100 to 300 nM.

Turning to `C[C@H](CC(=O)O)N(C)C(=O)c1c(CCCCOCc2cccc(Cl)c2)n(C)c2ncc(C#N)cc12` [Compound I-240], the IC50 is over 300 nM. The same measure, in the same setting: the same measure for `Cn1c(CCCCOCc2ccccc2)c(C(=O)N2CC[C@H](C(=O)O)C2)c2cc(C#N)cnc21` [Compound I-178]: over 300 nM; for `Cn1c(CCCCCCc2cccc(Cl)c2)c(C(=O)N2CC(C(=O)O)C2)c2cc(Cl)ccc21` [Compound I-151]: 100 to 300 nM. Still for that read-out and setting: the same measure for `CC(CC(=O)NS(C)(=O)=O)CC(=O)c1c(CCCCOCc2ccccc2)n(C)c2ncc(C#N)cc12` (stereo not drawn) [Compound I-362]: over 300 nM. Consider `C[C@H](CC(=O)O)CC(=O)c1c(CCCCOCc2cccc(Cl)c2)n(C)c2cnccc12` [Compound I-407], for which the IC50 was under 100 nM.

Regarding `C[C@H](CC(=O)O)CC(=O)c1c(CCCCC[C@@H](O)c2cccc(Cl)c2)n(C)c2ncc(Cl)cc12` [Compound I-107], the IC50 is under 100 nM. In the case of `C[C@H](CC(=O)O)CC(=O)c1c(CCOCCNc2cccc(Cl)c2)n(C)c2ccc(Cl)cc12` [Compound I-142], the IC50 was under 100 nM.

`C[C@@H](CC(=O)O)CC(=O)c1c(CCCCCCCC#CC2CC(F)(F)C2)n(C)c2ncc(C#N)cc12` [Compound I-336]: the IC50 is over 300 nM.

In the case of `CC(C)COCCc1c(C(=O)C[C@H](C)CC(=O)O)c2cc(Cl)ccc2n1C` [Compound I-72], the IC50 is over 300 nM.

As to `Cn1c(CCCCCCC#CC2CC(F)(F)C2)c(C(=O)N2CC[C@](F)(C(=O)O)C2)c2cc(C#N)cnc21` [Compound I-344], the IC50 was over 300 nM. As to `CC(CC(=O)O)CC(=O)c1c(CCCCOCc2cccc(Cl)c2)n(C[C@@H](O)CO)c2ncc(Cl)cc12` (stereo partly drawn) [Compound I-376], the IC50 was over 300 nM. Regarding `CC[C@@H](CC(=O)O)CC(=O)c1c(CCCCOCc2ccccc2)n(C)c2ncc(C#N)cc12` [Compound I-439], the IC50 was over 300 nM. Turning to `Cn1c(CCCCCC(O)c2cccc(Cl)c2)c(C(=O)N2CC[C@H](C(=O)O)C2)c2cc(Cl)cnc21` (stereo partly drawn) [Compound I-173], the IC50 was over 300 nM.

As to `C[C@@H](CC(=O)O)CC(=O)c1c(CCCCCCC#CC2COC2)n(C)c2ccc(Cl)cc12` [Compound I-333], the half-maximal inhibitory concentration (IC50) was over 300 nM. With `CC(CCC(=O)c1c(CCCCCCc2cccc(Cl)c2)n(C)c2ccc(Cl)cc12)C(=O)O` (stereo not drawn) [Compound I-150], the IC50 is over 300 nM. Regarding `CC(=O)N(C)c1cccc(COCCCCc2c(C(=O)CC(C)CC(=O)O)c3cc(C#N)cnc3n2C)c1` (stereo not drawn) [Compound I-299], the IC50 is 100 to 300 nM. For the compound `COc1nccc(COCCCCc2c(C(=O)CC(C)CC(=O)O)c3cc(Cl)cnc3n2C)n1` (stereo not drawn) [Compound I-448], the IC50 was over 300 nM. With `C[C@H](CC(=O)O)CC(=O)c1c(CCCCCOc2ncccn2)n(C)c2ccc(Cl)cc12` [Compound I-130], the half-maximal inhibitory concentration (IC50) is over 300 nM.

In the case of `CC(CC(=O)O)CC(=O)c1c2cc(C#N)cnc2n(C)c1[C@H]1CC[C@@H](COCc2cccc(Cl)c2)CC1` (stereo partly drawn) [Compound I-400], the IC50 was over 300 nM. For `C[C@@H](CC(=O)O)CC(=O)c1c(CCCCOCc2cccc(Cl)c2)n(C)c2ccc(C#N)cc12` [Compound I-469], the IC50 was in the range of 100 to 300 nM. Same read-out and setting: the same measure for `C[C@@H](CC(=O)O)CC(=O)c1c(CCCCOCc2cccc(Cl)c2)n(C)c2cnc(Cl)cc12` [Compound I-411]: over 300 nM; for `CC(CC(=O)O)CC(=O)c1c(CCCCC#Cc2ccc(F)nc2)n(C)c2ncc(Cl)cc12` (stereo not drawn) [Compound I-227]: over 300 nM.

As for `C[C@H](CC(=O)O)CC(=O)c1c(CCCCCCc2cnccn2)n(C)c2ccc(Cl)cc12` [Compound I-81], the IC50 lay in the range of 100 to 300 nM. The same measure, in the same setting: next, `CC[C@H](CC(=O)O)CC(=O)c1c(CCCCOCc2ccccc2)n(C)c2ncc(C#N)cc12` [Compound I-438]: over 300 nM.

In the case of `Cn1c(CCCCOCc2cccc(Cl)c2)c(C(=O)N2CC[C@H](C(=O)O)C2)c2cc(C#N)cnc21` [Compound I-179], the IC50 was over 300 nM. With `C[C@H](CC(=O)O)CC(=O)c1c(CCCCc2nc3cc(Cl)ccc3o2)n(C)c2ccc(Cl)cc12` [Compound I-145], the IC50 is over 300 nM.
